Test results reported in patent publication US11655217B2, “Pyrazole MAGL inhibitors” (H. Lundbeck A/S, priority 2017, dated 2023).

Columns and labels:
[1] = target: MAGL (Mus musculus (Mouse), UniProt O35678); assay: Mouse brain proteomes from inhibitor treated mice (oral gavage, sacrificed 4 h after administration, ABPP analysis); conditions: 5 mg/kg oral gavage
Experimental: (§1) Preparation of Mouse Brain Proteomes from Inhibitor Treated Mice.
(§2) Inhibitors were administered to wild-type C57Bl/6J by oral gavage in a vehicle of polyethylene glycol.

[2] = target: FAAH (Mus musculus (Mouse), UniProt O08914); assay: Mouse brain proteomes from inhibitor treated mice (oral gavage, sacrificed 4 h after administration, ABPP analysis), FAAH; conditions: 5 mg/kg oral gavage
FAAH, sequence (O08914 whole entry): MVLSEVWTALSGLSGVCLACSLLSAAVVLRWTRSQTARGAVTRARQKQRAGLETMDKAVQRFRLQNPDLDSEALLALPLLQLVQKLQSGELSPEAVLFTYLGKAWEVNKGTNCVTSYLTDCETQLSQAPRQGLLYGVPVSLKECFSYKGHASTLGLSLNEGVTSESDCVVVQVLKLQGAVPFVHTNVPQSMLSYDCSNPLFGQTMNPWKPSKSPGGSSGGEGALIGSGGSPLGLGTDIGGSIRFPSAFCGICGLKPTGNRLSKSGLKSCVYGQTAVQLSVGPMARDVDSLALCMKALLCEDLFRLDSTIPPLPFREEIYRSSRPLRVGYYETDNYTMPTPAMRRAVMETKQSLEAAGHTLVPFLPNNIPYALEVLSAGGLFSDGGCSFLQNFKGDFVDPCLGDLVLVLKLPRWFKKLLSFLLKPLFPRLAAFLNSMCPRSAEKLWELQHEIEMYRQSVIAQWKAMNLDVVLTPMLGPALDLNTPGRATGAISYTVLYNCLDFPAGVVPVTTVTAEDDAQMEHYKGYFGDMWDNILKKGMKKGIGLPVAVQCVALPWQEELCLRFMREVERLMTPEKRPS
Experimental: as §1, §2

MAGL, sequence (O35678 whole entry): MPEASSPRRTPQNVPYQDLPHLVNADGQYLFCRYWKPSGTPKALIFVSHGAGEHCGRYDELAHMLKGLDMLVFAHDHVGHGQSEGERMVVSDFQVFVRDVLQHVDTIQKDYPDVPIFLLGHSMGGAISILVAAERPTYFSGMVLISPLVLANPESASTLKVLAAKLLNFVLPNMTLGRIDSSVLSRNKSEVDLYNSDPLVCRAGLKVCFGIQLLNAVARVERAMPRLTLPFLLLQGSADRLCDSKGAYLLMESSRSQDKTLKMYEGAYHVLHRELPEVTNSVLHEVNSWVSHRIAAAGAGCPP

SMILES | MAGL % inh. 5 mg/kg (mouse) [1] | FAAH % inh. 5 mg/kg (mouse) [2]
O=C(O)c1ccn(C(=O)N2CCN(Cc3ccc(C(F)(F)F)cc3N3CCOCC3)CC2)n1 [Example 3, 1-(4-(2-Morpholino-4-(trifluoromethyl)benzyl)piperazine-1-carbonyl)-1H-pyrazole-3-carboxylic Acid] | D (% inhibition is greater than or equal to 0% and less than 25%) | D (% inhibition is greater than or equal to 0% and less than 25%)
CN(Cc1ccc(C(F)(F)F)cc1N1CCOCC1)C1(C)CCN(C(=O)n2ccc(C(=O)O)n2)CC1 [Example 4, 1-(4-Methyl-4-(methyl(2-morpholino-4-(trifluoromethyl)benzyl)amino)piperidine-1-carbonyl)-1H-pyrazole-3-carboxylic Acid] | D (% inhibition is greater than or equal to 0% and less than 25%) | D (% inhibition is greater than or equal to 0% and less than 25%)
O=C(O)c1ccn(C(=O)N2CCN(Cc3ccc(C(F)(F)F)cc3N3CCN(C4CC4)CC3)CC2)n1 [Example 6, 1-(4-(2-(4-Cyclopropylpiperazin-1-yl)-4-(trifluoromethyl)benzyl)piperazine-1-carbonyl)-1H-pyrazole-3-carboxylic Acid] | D (% inhibition is greater than or equal to 0% and less than 25%) | D (% inhibition is greater than or equal to 0% and less than 25%)
O=C(O)c1ccn(C(=O)N2CCN(Cc3ccc(C(F)(F)F)c(N4CCCC4)c3)CC2)n1 [Example 7, 1-(4-(3-(Pyrrolidin-1-yl)-4-(trifluoromethyl)benzyl)piperazine-1-carbonyl)-1H-pyrazole-3-carboxylic Acid] | D (% inhibition is greater than or equal to 0% and less than 25%) | D (% inhibition is greater than or equal to 0% and less than 25%)
O=C(O)c1ccn(C(=O)N2CCN(Cc3ccc(C(F)(F)F)c(-c4nccs4)c3)CC2)n1 [Example 8, 1-(4-(3-(Thiazol-2-yl)-4-(trifluoromethyl)benzyl)piperazine-1-carbonyl)-1H-pyrazole-3-carboxylic Acid] | D (% inhibition is greater than or equal to 0% and less than 25%) | D (% inhibition is greater than or equal to 0% and less than 25%)
CN(Cc1ccc(C(F)(F)F)cc1-c1nccs1)C1(C)CCN(C(=O)n2ccc(C(=O)O)n2)CC1 [Example 10, 1-(4-methyl-4-(methyl(2-(thiazol-2-yl)-4-(trifluoromethyl)benzyl)amino)piperidine-1-carbonyl)-1H-pyrazole-3-carboxylic Acid] | D (% inhibition is greater than or equal to 0% and less than 25%) | D (% inhibition is greater than or equal to 0% and less than 25%)
O=C(O)c1ccn(C(=O)N2CCC(Oc3ccc(Cl)cc3N3CCCC3)CC2)n1 [Example 11, 1-(4-(4-Chloro-2-(pyrrolidin-1-yl)phenoxy)piperidine-1-carbonyl)-1H-pyrazole-3-carboxylic Acid] | D (% inhibition is greater than or equal to 0% and less than 25%) | D (% inhibition is greater than or equal to 0% and less than 25%)
COC1CCN(c2cc(C(F)(F)F)ccc2CN2CCN(C(=O)n3ccc(C(=O)O)n3)CC2)CC1 [Example 12, 1-(4-(2-(4-Methoxypiperidin-1-yl)-4-(trifluoromethyl)benzyl)piperazine-1-carbonyl)-1H-pyrazole-3-carboxylic Acid] | D (% inhibition is greater than or equal to 0% and less than 25%) | D (% inhibition is greater than or equal to 0% and less than 25%)
C[C@@H]1CN(Cc2ccc(-c3ccccc3)cc2Cl)CCN1C(=O)n1ccc(C(=O)O)n1 [Example 291, (R)-1-(4-((3-chloro-[1,1′-biphenyl]-4-yl)methyl)-2-methylpiperazine-1-carbonyl)-1H-pyrazole-3-carboxylic acid] | C (% inhibition is greater than or equal to 25% and less than 50%) | 
O=C(O)c1ccn(C(=O)N2CCC(Oc3ccc(C(F)(F)F)cc3N3CCCC3)CC2)n1 [Example 307, 1-(4-(2-(pyrrolidin-1-yl)-4-(trifluoromethyl)phenoxy)piperidine-1-carbonyl)-1H-pyrazole-3-carboxylic acid] | D (% inhibition is greater than or equal to 0% and less than 25%) | 
O=C(O)c1ccn(C(=O)N2CCC(Oc3cc(N4CCCC4)cc(C(F)(F)F)c3)CC2)n1 [Example 308, 1-(4-(3-(pyrrolidin-1-yl)-5-(trifluoromethyl)phenoxy)piperidine-1-carbonyl)-1H-pyrazole-3-carboxylic acid] | D (% inhibition is greater than or equal to 0% and less than 25%) | 
C[C@H]1CN(Cc2cccc(Oc3ccc(Cl)cc3)c2)CCN1C(=O)n1ccc(C(=O)O)n1 [Example 311, (S)-1-(4-(3-(4-chlorophenoxy)benzyl)-2-methylpiperazine-1-carbonyl)-1H-pyrazole-3-carboxylic acid] | D (% inhibition is greater than or equal to 0% and less than 25%) | 
C[C@@H]1CN(Cc2ccc(C(F)(F)F)cc2N2CCCC2)CCN1C(=O)n1ccc(C(=O)O)n1 [Example 327, (R)-1-(2-methyl-4-(2-(pyrrolidin-1-yl)-4-(trifluoromethyl)benzyl)piperazine-1-carbonyl)-1H-pyrazole-3-carboxylic acid] | D (% inhibition is greater than or equal to 0% and less than 25%) | 
C[C@H]1CN(Cc2ccc(C(F)(F)F)cc2N2CCCC2)CCN1C(=O)n1ccc(C(=O)O)n1 [Example 328, (S)-1-(2-methyl-4-(2-(pyrrolidin-1-yl)-4-(trifluoromethyl)benzyl)piperazine-1-carbonyl)-1H-pyrazole-3-carboxylic acid] | D (% inhibition is greater than or equal to 0% and less than 25%) | 
O=C(O)c1ccn(C(=O)N2CCC3(CCN(Cc4cc(Cl)cc(Cl)c4Cl)C3)CC2)n1 [Example 337, 1-(2-(2,3,5-trichlorobenzyl)-2,8-diazaspiro[4.5]decane-8-carbonyl)-1H-pyrazole-3-carboxylic acid] | D (% inhibition is greater than or equal to 0% and less than 25%) | 
C[C@H]1CN(Cc2cc(F)cc(Oc3ccc(Cl)cc3)c2)CCN1C(=O)n1ccc(C(=O)O)n1 [Example 347, (S)-1-(4-(3-(4-chlorophenoxy)-5-fluorobenzyl)-2-methylpiperazine-1-carbonyl)-1H-pyrazole-3-carboxylic acid] | D (% inhibition is greater than or equal to 0% and less than 25%) | 
C[C@@H]1CC[C@@H](C)N1c1cc(C(F)(F)F)ccc1CN1CCN(C(=O)n2ccc(C(=O)O)n2)CC1 [Example 359, 1-(4-(2-((2R,5R)-2,5-dimethylpyrrolidin-1-yl)-4-(trifluoromethyl)benzyl)piperazine-1-carbonyl)-1H-pyrazole-3-carboxylic acid] | D (% inhibition is greater than or equal to 0% and less than 25%) | 
C[C@H]1CC[C@H](C)N1c1cc(C(F)(F)F)ccc1CN1CCN(C(=O)n2ccc(C(=O)O)n2)CC1 [Example 360, 1-(4-(2-((2S,5S)-2,5-dimethylpyrrolidin-1-yl)-4-(trifluoromethyl)benzyl)piperazine-1-carbonyl)-1H-pyrazole-3-carboxylic acid] | D (% inhibition is greater than or equal to 0% and less than 25%) | 
CN(Cc1cc(N2CCCC2)cc(C(F)(F)F)c1)C1(C)CCN(C(=O)n2ccc(C(=O)O)n2)CC1 [Example 381, 1-(4-methyl-4-(methyl(3-(pyrrolidin-1-yl)-5-(trifluoromethyl)benzyl)amino)piper-idine-1-carbonyl)-1H-pyrazole-3-carboxylic acid] | D (% inhibition is greater than or equal to 0% and less than 25%) | 
CN(Cc1cccc(C(F)(F)F)c1N1CCCC1)C1(C)CCN(C(=O)n2ccc(C(=O)O)n2)CC1 [Example 382, 1-(4-methyl-4-(methyl(2-(pyrrolidin-1-yl)-3-(trifluoromethyl)benzyl)amino)piper-idine-1-carbonyl)-1H-pyrazole-3-carboxylic acid] | D (% inhibition is greater than or equal to 0% and less than 25%) | 
CN(Cc1cc(C(F)(F)F)ccc1N1CCCC1)C1(C)CCN(C(=O)n2ccc(C(=O)O)n2)CC1 [Example 384, 1-(4-methyl-4-(methyl(2-(pyrrolidin-1-yl)-5-(trifluoromethyl)benzyl)amino)piper-idine-1-carbonyl)-1H-pyrazole-3-carboxylic acid] | D (% inhibition is greater than or equal to 0% and less than 25%) | 
CN(Cc1ccc(C(F)(F)F)c(N2CCCC2)c1)C1(C)CCN(C(=O)n2ccc(C(=O)O)n2)CC1 [Example 385, 1-(4-methyl-4-(methyl(3-(pyrrolidin-1-yl)-4-(trifluoromethyl)benzyl)amino)piper-idine-1-carbonyl)-1H-pyrazole-3-carboxylic acid] | D (% inhibition is greater than or equal to 0% and less than 25%) | 
O=C(O)c1nn(C(=O)N2CCC3(CCN(Cc4cc(Cl)cc(C(F)(F)F)c4)C3)CC2)cc1Cl [Example 388, 4-chloro-1-(2-(3-chloro-5-(trifluoromethyl)benzyl)-2,8-diazaspiro[4.5]decane-8-carbonyl)-1H-pyrazole-3-carboxylic acid] | D (% inhibition is greater than or equal to 0% and less than 25%) | 
C[C@@H]1CN(Cc2ccc(C(F)(F)F)cc2N2C3CCC2COC3)CCN1C(=O)n1ccc(C(=O)O)n1 [Example 393, 1-((2R)-4-(2-(3-oxa-8-azabicyclo[3.2.1]octan-8-yl)-4-(trifluoromethyl)benzyl)-2-methylpiperazine-1-carbonyl)-1H-pyrazole-3-carboxylic acid] | D (% inhibition is greater than or equal to 0% and less than 25%) | 
